We go through seven molecules from article PMC7732025 (Archives of pharmacal research, 2013).

For data set [1], the system named is VERO cells. Put plainly: Cytotoxic assay, VERO cells. The format is cell-based.
Data set [2] in a line: Cytotoxic assay, VERO cells. Type of data set: cell-based. The following applies: African green monkey.
Data set [3] can be described thus: in vitro. As to conditions: human, CEM cells.
In data set [4] the test system is primary human PBM cells. Put plainly: Cytotoxic assay, primary human PBM cells. The format is cell-based. The following applies: primary human PBM cells (lymphocytes).
The nature of data set [5]: Cytotoxic assay, primary human PBM cells. The following applies: human, primary human PBM cells. Type of data set: cell-based.
For data set [6], the system named is CEM cells.
Data set [7] has as its system HIV-1. Put plainly: Anti-HIV-1 assay in activated primary human PBM cells. The format is cell-based, human immunodeficiency virus type 1. The following applies: for EC50: read-out: Anti-HIV-1 activity in human PBM cells EC50.

`CC(=NNC(=O)CN1c2c(-c3ccccc3)n[nH]c2-c2ccccc2S1(=O)=O)c1cc(Cl)sc1Cl` [5i, N′-(1-(2,5-dichlorothiophen-3-yl)ethylidene)-2-(5,5-dioxido-3-phenylbenzo[e]pyrazolo[4,3-c][1,2]thiazin-4(1H)-yl)acetohydrazide]: the “toxicity in VERO cells (in words)” value in data set [1] is on record as “toxic”. Also, the results for the IC50 at 5 day in data set [2], in data set [3] and in data set [5] were 38.8 µM, 14.4 µM and 12.2 µM, respectively. For the same molecule, the “toxicity in primary human PBM cells (in words)” value in data set [4] is on record as “toxic”. In addition, the “toxicity in CEM cells (in words)” value in data set [6] was “toxic”.
In the case of `CC(=NNC(=O)CN1c2c(-c3ccccc3)n[nH]c2-c2ccccc2S1(=O)=O)c1cc(C)cs1` [5j, 2-(5,5-Dioxido-3-phenylbenzo[e]pyrazolo[4,3-c][1,2]thiazin-4(1H)-yl)-N′-(1-(4-methylthiophen-2-yl)ethylidene)acetohydrazide], the IC50 at 5 day in data set [2] is 6 µM; in data set [3], 18.3 µM; in data set [5], greater than 100 µM. The 50% effective concentration (EC50) in data set [7] is 13.3 µM.
The matching figures for `CC(=NNC(=O)CN1c2c(-c3ccccc3)n[nH]c2-c2ccccc2S1(=O)=O)c1sccc1C` [5b, 2-(5,5-Dioxido-3-phenylbenzo[e]pyrazolo[4,3-c][1,2]thiazin-4(1H)-yl)-N′-(1-(3-methylthiophen-2-yl)ethylidene)acetohydrazide]: 75.3 µM, 13.1 µM, 56.2 µM and 11.6 µM.
`CC(=NNC(=O)CN1c2c(-c3ccccc3)n[nH]c2-c2ccccc2S1(=O)=O)c1ccncc1` [5v, 2-(5,5-Dioxido-3-phenylbenzo[e]pyrazolo[4,3-c][1,2]thiazin-4(1H)-yl)-N′-(1-(pyridin-4-yl)ethylidene)acetohydrazide]: the half-inhibitory concentration (IC50) at 5 day was 84.1 µM in data set [2], 34.5 µM in data set [3] and 75.6 µM in data set [5]. In data set [7], the “anti-HIV-1 activity (in words)” value is “inactive”.
`CC(=NNC(=O)CN1c2c(-c3ccccc3)n[nH]c2-c2ccccc2S1(=O)=O)c1sc(N)nc1C` [5h, N′-(1-(2-amino-4-methylthiazol-5-yl)ethylidene)-2-(5,5-dioxido-3-phenylbenzo[e]pyrazolo[4,3-c][1,2]thiazin-4(1H)-yl)acetohydrazide]: in data set [1], the “toxicity in VERO cells (in words)” value is given as “no toxicity”. In addition, the IC50 at 5 day in data set [2], in data set [3] and in data set [5] was greater than 100 µM throughout. Also, the “toxicity in primary human PBM cells (in words)” value in data set [4] was “no toxicity”. Moreover, in data set [6], the “toxicity in CEM cells (in words)” value is reported as “no toxicity”.
Regarding `CC(=NNC(=O)CN1c2c(-c3ccccc3)n[nH]c2-c2ccccc2S1(=O)=O)c1cccs1` [5a, 2-(5,5-Dioxido-3-phenylbenzo[e]pyrazolo[4,3-c][1,2]thiazin-4(1H)-yl)-N′-(1-(thiophen-2-yl)ethylidene)acetohydrazide], in data set [1], the “toxicity in VERO cells (in words)” value is recorded as “no toxicity”. For the same molecule, the half-maximal inhibitory concentration (IC50) at 5 day came to 77.2 µM in data set [2], 23.3 µM in data set [3] and 88 µM in data set [5]. Further, in data set [4], the “toxicity in primary human PBM cells (in words)” value was “no toxicity”. In addition, the EC50 in data set [7] stood at 11.2 µM.
For the molecule `CC(=NNC(=O)CN1c2c(-c3ccccc3)n[nH]c2-c2ccccc2S1(=O)=O)c1cc2ccccc2o1` [5n, N′-(1-(benzofuran-2-yl)ethylidene)-2-(5,5-dioxido-3-phenylbenzo[e]pyrazolo[4,3-c][1,2]thiazin-4(1H)-yl)acetohydrazide], the concentration for half-maximal inhibition (IC50) at 5 day in data set [2] was 23 µM; in data set [3], 22.4 µM; in data set [5], greater than 100 µM. The “anti-HIV-1 activity (in words)” value in data set [7] is “inactive”.

As usually defined, the IC50 is the concentration that gives 50% inhibition. Usually EC50 stands for the midpoint of the concentration-response curve.
